According to PubChem BioAssay AID1918986 (Small Molecule Screening Facility, UW Madison, 2023):
pIC50: −log10 of the molar value. Calls of active or inactive are those of the source.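 The calls were made as follows: active = full-shape inhibition curve with partial efficacy, or partial curve whose IC50 upper confidence bound lies within tested doses; inactive = the rest.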

biological target: Klebsiella pneumoniae PriA-SSB C-terminal tail interaction; test: K. pneumoniae PriA-SSBct interaction blockers – biochemical, AlphaScreen, virtual screen prioritized set, dose response (AID 1918986); details: PriA binding to biotinylated SSBct peptide

Question: Which outcome does the source give for `CCCN1CCCc2cc(C(C)C)ccc21` here?
Answer: inactive

Question: With `O=C(O)CSc1ccc([N+](=O)[O-])c2cccnc12` as the compound, how does the outcome read?
Answer: inactive

Question: With `c1cncc(CSCc2cccc3cccnc23)c1` as the compound, how does the outcome read?
Answer: inactive

Question: `CCOC(=O)c1c(C)[nH]c(C(=O)CSc2cccc3cccnc23)c1C` was tested. Which outcome did it give?
Answer: inactive

Question: Which outcome does the source give for `c1cnc2c(Cn3ccnc3)cccc2c1` here?
Answer: inactive

Question: With `CC(C)N(C)S(=O)(=O)c1ccc(F)c(C(=O)Nc2nc(-c3ccccn3)cs2)c1` as the compound, how does the pIC50 read?
Answer: 5.17

Question: With `CC(C)(C)c1ncc(-c2cccc3cccnc23)o1` as the compound, how does the outcome read?
Answer: inactive

Question: For `c1ccc(-c2cnc3n2CCC3)nc1`, which outcome is on record?
Answer: inactive

Question: With `Cc1nc(SCC(=O)Nc2n[nH]c(-c3ccccn3)n2)n[nH]1` as the compound, how does the pIC50 read?
Answer: 4.81

Question: For `Clc1ccc(CN2CCOCCOCC2)c2ncccc12`, which outcome is on record?
Answer: inactive

Question: `O=[N+]([O-])c1ncn(Cc2cccc3cccnc23)n1` was tested. Which outcome did it give?
Answer: inactive

Question: How did the outcome turn out when `Cc1nn(C(C)C)cc1-c1ccc2cccnc2c1C` was run?
Answer: inactive

Question: With `Oc1cccnc1SCc1ccc(F)c2cccnc12` as the compound, how does the outcome read?
Answer: inactive

Question: How did the outcome turn out when `c1cnc2c(SCc3ccn4ncnc4c3)cccc2c1` was run?
Answer: inactive

Question: Which outcome does the source give for `O=[N+]([O-])c1cc(Cl)cc(C=Nc2ccc(Cl)c3ncccc23)c1O` here?
Answer: inactive

Question: With `O=c1[nH]ncc(NN=Cc2ccccn2)c1Cl` as the compound, how does the outcome read?
Answer: inactive

Question: `Fc1cccc2[nH]c(-c3ccccn3)nc12` was tested. Which outcome did it give?
Answer: inactive

Question: How did the outcome turn out when `Clc1cccnc1NN=Cc1ccccn1` was run?
Answer: inactive

Question: For `c1ccc(-c2csc(NC3COC4(CCC4)C3)n2)nc1` (stereo not drawn), which outcome is on record?
Answer: inactive

Question: How did the pIC50 turn out when `C(=NNc1ncnc2nc[nH]c12)c1ccccn1` was run?
Answer: 5.89

Question: `O=C(Nc1nc(-c2ccccn2)cs1)C1(C2CCCCO2)CCCO1` (stereo not drawn) was tested. Which outcome did it give?
Answer: inactive

Question: With `Cn1ccc(C23CCC(C2)C3C(=O)Nc2nc(-c3ccccn3)cs2)n1` (stereo not drawn) as the compound, how does the pIC50 read?
Answer: 4.65

Question: With `Cc1c(N)nc(-c2ccccn2)nc1NCC1CCC(C2CC2)O1` (stereo not drawn) as the compound, how does the pIC50 read?
Answer: 5.26

Question: With `c1cc(CSc2cccc3cccnc23)cc(CN2CCOCC2)c1` as the compound, how does the outcome read?
Answer: inactive

Question: `C1=C[C@@H](CNc2nc(-c3ccccn3)cs2)[C@H]2CO[C@@H]1C2` was tested. Which pIC50 did it give?
Answer: 4.94

Question: With `O=C(Nc1nc(-c2ccccn2)cs1)c1ccc(Cl)c(S(=O)(=O)NCC2CCCO2)c1` (stereo not drawn) as the compound, how does the pIC50 read?
Answer: 5.00

Question: How did the pIC50 turn out when `CC1CC(Nc2nc(-c3ccccn3)nc3c2CCC3)CC(C)N1` (stereo not drawn) was run?
Answer: 4.92

Question: `O=C(Cc1ccc(S(=O)(=O)N2CCOCC2)s1)Nc1nc(-c2ccccn2)cs1` was tested. Which outcome did it give?
Answer: inactive

Question: For `O=[N+]([O-])c1ccc(SC2CCCCC2)c2ncccc12`, which IC50 is on record?
Answer: inactive

Question: How did the outcome turn out when `c1ccc(-c2n[nH]c3ccccc23)nc1` was run?
Answer: inactive

Question: With `CSCC(CCO)Nc1ccc2ccc3cccnc3c2n1` (stereo not drawn) as the compound, how does the pIC50 read?
Answer: 5.04

Question: `c1ccc(-c2ncc[nH]2)nc1` was tested. Which pIC50 did it give?
Answer: 4.80

Question: How did the pIC50 turn out when `CSCC(CCO)Nc1ccnc2c1ccc1cccnc12` (stereo not drawn) was run?
Answer: 4.97

Question: With `Clc1cncnc1NN=Cc1ccccn1` as the compound, how does the pIC50 read?
Answer: 5.77

Question: `Nc1ncc(-c2ccccn2)cn1` was tested. Which outcome did it give?
Answer: inactive

Question: Which outcome does the source give for `OCCCN(CCO)c1ccc2ccc3cccnc3c2n1` here?
Answer: inactive

Question: `O=C(CN1C(=O)COc2ccc([N+](=O)[O-])cc21)Nc1nc(-c2ccccn2)cs1` was tested. Which pIC50 did it give?
Answer: 4.91

Question: With `O=C(O)c1cc(C(=O)N2CCS(=O)(=O)CC2)ccn1` as the compound, how does the outcome read?
Answer: inactive

Question: `CO[C@H](C)[C@@H](C)Nc1nc(-c2ccccn2)nc2c1CCC2` was tested. Which pIC50 did it give?
Answer: 4.86

Question: How did the pIC50 turn out when `COc1cc([N+](=O)[O-])c(C(=O)Nc2nc(-c3ccccn3)cs2)cc1SC` was run?
Answer: 5.15

Question: How did the outcome turn out when `CN(C)CCN(C)c1ccc2ccc3cccnc3c2n1` was run?
Answer: inactive

Question: With `CC1CCC(=NNc2ccccc2[N+](=O)[O-])CC1` (stereo not drawn) as the compound, how does the pIC50 read?
Answer: 5.44

Question: How did the pIC50 turn out when `Fc1cccc(CNc2nc(-c3ccccn3)nc3c2CCC3)c1F` was run?
Answer: 5.21

Question: How did the outcome turn out when `Cc1cc(C)cc(OCCN(C)C(=O)CSc2cccc3cccnc23)c1` was run?
Answer: inactive

Question: With `FC(F)(F)c1cnc(NN=Cc2ccccn2)c(Cl)c1` as the compound, how does the pIC50 read?
Answer: 4.69

Question: With `c1ccc(-c2nc3c(c(N4CCCC4)n2)CCC3)nc1` as the compound, how does the pIC50 read?
Answer: 4.75

Question: Which outcome does the source give for `c1cnc2c(SCCn3cncn3)cccc2c1` here?
Answer: inactive

Question: How did the pIC50 turn out when `CC1CC(Nc2nc(-c3ccccn3)cs2)C1` (stereo not drawn) was run?
Answer: 4.88

Question: For `COC(C)COc1ccc2ccc3cccnc3c2n1` (stereo not drawn), which outcome is on record?
Answer: inactive

Question: Which outcome does the source give for `CCc1nc(C)c(CSc2cccc3cccnc23)o1` here?
Answer: inactive

Question: With `OCCC(Nc1ccnc2c1ccc1cccnc12)C(F)F` (stereo not drawn) as the compound, how does the pIC50 read?
Answer: 5.35

Question: With `Cc1ccc(-c2nc(SCC(=O)NCc3ccnc(-c4ccccn4)n3)n[nH]2)cc1` as the compound, how does the pIC50 read?
Answer: 4.42

Question: With `C1=C(c2cccc3cccnc23)CCNC1` as the compound, how does the outcome read?
Answer: inactive

Question: `CC(C)c1ncc(-c2cccc3cccnc23)n1C` was tested. Which outcome did it give?
Answer: inactive

Question: `C(=NNc1ncnc2sccc12)c1ccccn1` was tested. Which pIC50 did it give?
Answer: 5.57

Question: How did the outcome turn out when `O=c1[nH]c(NN=Cc2ccccn2)nc2ccccc12` was run?
Answer: inactive

Question: With `c1cc2c(c(-c3cccc4cccnc34)c1)CNC2` as the compound, how does the outcome read?
Answer: inactive

Question: For `Cc1cc(-c2ccccn2)n[nH]1`, which outcome is on record?
Answer: inactive

Question: How did the outcome turn out when `CC1(C)CC(CSc2cccc3cccnc23)=NO1` was run?
Answer: inactive

Question: Which outcome does the source give for `CCOC(=O)c1[nH]c(C)c(C(=O)CSc2cccc3cccnc23)c1C` here?
Answer: inactive

Question: With `CC1Sc2ccc(C(=O)Nc3nc(-c4ccccn4)cs3)cc2NC1=O` (stereo not drawn) as the compound, how does the pIC50 read?
Answer: 5.10

Question: With `O=C(O)c1cc(-c2ccccc2)ccn1` as the compound, how does the pIC50 read?
Answer: 4.68

Question: How did the pIC50 turn out when `O=C1CC2(CCOC2)C(C(=O)Nc2nc(-c3ccccn3)cs2)CN1` (stereo not drawn) was run?
Answer: 4.90

Question: How did the outcome turn out when `Cc1ccc(-n2nc(C)cc2NC(=O)CSc2cccc3cccnc23)cc1` was run?
Answer: inactive

Question: With `O=C(CSc1cccc2cccnc12)Nc1cccc(N2CCCC2=O)c1` as the compound, how does the outcome read?
Answer: inactive

Question: With `O[C@@H]1COC[C@@H]1Nc1ccc2ccc3cccnc3c2n1` as the compound, how does the pIC50 read?
Answer: 5.37

Question: With `Cc1cccc2nc(CSc3cccc4cccnc34)cn12` as the compound, how does the outcome read?
Answer: inactive

Question: With `OCCCCNc1ccc2ccc3cccnc3c2n1` as the compound, how does the pIC50 read?
Answer: 5.36
